Measurements published in patent publication US5767134A, “Prodrug forms of ribonucleotide reductase inhibitors 3-AP and 3-AMP” (Vion Pharmaceuticals, Inc., priority 1997, dated 1998).
Where a name gives a salt, the structure may show the parent alone. Each block holds one compound with its values, some of them ahead of it.

What was measured:
[1] = Water solubility in deionized water; format: physicochemical; details: for Dissolution observed in water: 3-AP: 5 mg in 100 mL, room temperature, 2 hours, prodrug I: 8 mg in 0.5 mL, a few minutes
Protocol: In order to test the water solubility of Prodrug I (disodium salt) compared to 3-AP, the following procedure was used. To test the water solubility of 3-AP in deionized water, 5 mg of 3-AP was placed in a 125 mL erlenmeyer flask to which was added 100 mL of water. The mixture was well shaken at room temperature. […] Total water solubility of 3-AP in deionized water was <1 mg/20 mL. In the case of prodrug I (para), 8 mg of the prodrug was placed in a 50 mL erlenmeyer flask.

[2] = Conversion of Prodrug I (para) to 3-AP in vitro in presence of S9 fraction of rat liver (FIG. 9); format: in vitro ADME
Protocol: FIG. 9 depicts a graph of the conversion of Prodrug I (para) to 3-AP in the presence of liver S9 fraction.
A 1 μM solution of Prodrug I in culture media was incubated with approximately 2.5 mg of liver S9 fraction.

M109 tumor = M109 tumor growth in Balb/c mice with two vehicle controls (FIG. 11); format: in vivo
Protocol: (§1) FIGS. 10 and 11 depict a graph comparing the reduction in M109 tumor growth in Balb/c Mice treated with a control, 3-AP or Prodrug I (para).
(§2) Balb/c mice were subcutaneously injected in the right flank on Day 0 with 0.2 mL of a 5×10^6 cell/mL suspension of M109 tumor cells which had been grown to log phase in culture, trypsin digested to separate, washed with PBS and reconstituted. Injections of 3-AP, Prodrug I, or Vehicle Control were given to the […] twice on Day 3, once on Day 4, twice on Day 6 and once on Day 7. Ten mice received only injections of 3 AP, each injection providing a dose of 4.5 mg/kg body weight. Ten mice received only injections of Prodrug I, each injection providing a dose of 10 mg/kg body weight. Ten mice received only injections of the vehicle control. […] FIG. 11 also compares the reduction in M109 tumor growth in Balb/c Mice using two vehicle controls (1-phosphate buffered […] and 2- 10% DMSO). […] Control I was used as a control for the prodrug; control 2 was used for the parent drug.
(§3) Balb/c mice were subcutaneously injected in the right flank on Day 0 with 0.2 mL of a 5×10^6 cell/mL suspension of M109 tumor cells which had been grown to log phase in culture, trypsin digested to separate, washed with PBS and reconstituted. […]

[3] = Stability of Prodrug I in culture media alone, HPLC assay; format: in vitro ADME; details: 37° C., two hours
M109 tumor cells = assay: In vivo efficacy, M109 tumor growth in Balb/c mice (FIG. 10); details: 10 mg/kg per injection vs equal molar dose of 3-AP (4.5 mg/kg)
Protocol: as §1, §2, §3

[4] = vs hydroxyurea; cited from earlier work
M-109 lung carcinoma = details: compared with other HCTs reported to date; cited from earlier work
[5] = tested on: A2780 human ovarian carcinoma; details: compared with other HCTs reported to date; cited from earlier work
L1210 leukemia = details: compared with other HCTs reported to date; cited from earlier work

SMILES: NC(=S)NN=Cc1ncccc1NC(=O)OCc1ccc(OP(=O)(O)O)cc1 [Prodrug I (disodium salt)]
Dissolution observed in water [1]: readily dissolved
Increase in water solubility over 3-AP ([1]; disodium salt vs 3-AP, deionized water): more than 300 fold
solubility ([1]; disodium salt, deionized water, read-out: Total water solubility in deionized water): ≥ 16 mg/mL

SMILES: NC(=S)NN=Cc1ncccc1NC(=O)OCc1ccc(OP(=O)(O)O)cc1 [Prodrug I (para)]
Course of prodrug concentration with liver S9 fraction ([2]; 1 μM, approximately 2.5 mg liver S9 fraction, 37° C.): decreased very rapidly
Prodrug concentration after incubation with liver S9 fraction ([2]; 1 μM, approximately 2.5 mg liver S9 fraction, after 100 minutes at 37° C.): below detection limits
Other metabolites found ([2]; 1 μM, liver S9 fraction, 37° C.): no other metabolites were found
Rate of conversion of Prodrug I to 3-AP ([2]; liver S9 fraction, 37° C.): 20 nmole/min/mg rat liver tissue
metabolised at 1 µM ([2]; rat, 1 μM, liver S9 fraction, 37° C., read-out: Prodrug recovered as 3-AP): ~80%
Anti-tumor activity compared to 3-AP or the two controls (M109 tumor; controls PBS and 10% DMSO): superior anti-tumor activity
Reduction of M109 tumor growth compared with 3-AP (M109 tumor; mole-to-mole basis): more effective
Prodrug concentration in culture media alone [3]: relatively stable
3-AP found in culture media alone ([3]; HPLC): no 3-AP was found
Reduction of tumor growth compared with 3-AP (M109 tumor cells; tumors measured Days 7, 10, 13, 17): significantly more effective
Reduction of tumor growth compared with 3-AP (M109 tumor cells; tumors measured Days 7, 10, 13, 17, listed as Prodrug I): slightly more effective

SMILES: Cc1ccnc(C=NNC(N)=S)c1N [Prodrug 3-AMP, 3-amino-4-methylpyridine-2-carboxaldehyde thiosemicarbazone]
Antineoplastic activity in comparison with hydroxyurea (HU) [4]: significant antineoplastic activity
Therapeutic effects against M-109 lung carcinoma (M-109 lung carcinoma): much better therapeutic effects
Therapeutic effects against A2780 human ovarian carcinoma [5]: much better therapeutic effects
Therapeutic effects against L1210 leukemia (L1210 leukemia): much better therapeutic effects

Stability of recovered 3-AP in liver S9 fraction ([2]; liver S9 fraction): stable
Dissolution observed in water [1]: not totally dissolved
Total water solubility in deionized water ([1]; 120 min): < 1 mg/20 mL
SMILES: NC(=S)NN=Cc1ncccc1N [Prodrug 3-AP, 3-aminopyridine-2-carboxaldehyde thiosemicarbazone]
Antineoplastic activity in comparison with hydroxyurea (HU) [4]: significant antineoplastic activity
Therapeutic effects against M-109 lung carcinoma (M-109 lung carcinoma): much better therapeutic effects
Therapeutic effects against A2780 human ovarian carcinoma [5]: much better therapeutic effects
Therapeutic effects against L1210 leukemia (L1210 leukemia): much better therapeutic effects
